Consider 10 compounds from patent US9096601B2 (CSPC Zhongqi Pharmaceutical Technology (Shijiazhuang) Co., …, priority 2010, dated 2015).

Holding throughout (assay): In-vitro tumor cell proliferation inhibition, MTT
Format in all cases: cell-based, human

The subject of assay [1] is colon cancer cell strain SW620. The settings on record: 72 hours. An excerpt:
(§1) The object of this assay was to test the inventive compounds for the inhibitory activity of in-vitro tumor cell proliferation. The MTT (tetreamethyl-azo-zole-salt) colorimetric method was used in this assay.
(§2) Human non-small cell lung carcinoma cell strains HCC827, PC-9, H1975 (EGFR L858R/T790M mutation) and H292 (EGFR WT), and other tumor type cell strains, including human acute myelogenous leukemia cell strain MV4-11, human chronic granulocytic leukemia cell strain K562, human squamous cell carcinoma cell strain A431, human breast carcinoma cell strains MDA-MB-468 and BT 474, human colon cancer cell strains SW480, HCT116 and SW620, human liver cancer cell strain Hep G2, human gastric cancer cell strain MK-45, and human malignant melanoma cell strain A375 used in this assay were all purchased from ATCC company, USA and kept in the laboratory. All of the above-mentioned non-small cell lung carcinoma cell strains and the breast carcinoma cell strain BT 474 were cultured with a RPMI-1640 complete culture medium containing 10% fetal bovine serum, 100 U/ml penicillin and 100 μg/ml streptomycin under 5% CO2 and at 37° C. The other cell strains were cultured with a DMEM complete culture medium containing 10% fetal bovine serum (having a MV4-11 cell content of 20%), 100 U/ml penicillin and 100 μg/ml streptomycin under 5% CO2 and 37° C.
(§3) A cell suspension having a cell concentration of 1-2×10^4 cells/ml was treated with a complete cell culture solution to adjust the cell concentration, wherein the cell concentrations for HCC827 and MV4-11 were adjusted to 6×10^4 cells/ml and 1×10^5 cells/ml respectively. The cell suspension was inoculated in a 96-well plate with 200 μl cell suspension/well and cultured overnight. Next day, the supernatant was drawn off and discarded. Then, the cells were treated with the tested compounds in a gradient concentration respectively. In the meanwhile, a negative control group free of the drug substance and an isovolumetric solvent control group (having a DMSO concentration of 1%) were used. The triplicate wells were used for each of dose groups. The culturing was conducted at 37° C. under 5% CO2. After 72 hours, […] having a concentration of 5 mg/ml was added to each of wells. The culturing was further conducted for 2-4 hours. The supernatant was discarded. Then […] was added to each of wells. The contents in the well were mixed homogenously by oscillation for 15 minutes. The absorbance (A) value was measured with a microplate reader at λ=570 nm (the A value is in the direct proportion to the number of living cells) and averaged. The relative cell proliferation inhibitory rate is (A570 control-group−A570 dose-group)/A570 control-group×100%. The assay was repeated for at least three times. The data was expressed as number average. The statistical data were analyzed using t-test. P<0.05 was considered significant. The cell proliferation inhibition of the following compounds was expressed as IC50 or inhibitory rate.

For assay [2], the system named is malignant melanoma cell strain A375. The conditions noted are these: 72 hours.
Description: as §1, §2, §3

Assay [3] relates to gastric cancer cell strain MK-45. The settings on record: 72 hours, read-out: MK45 (IC50).
Description: as §1, §2, §3

For assay [4], the system named is acute myelogenous leukemia cell strain MV4-11. The settings on record: 72 hours.
Description: as §1, §2, §3

Assay [5] deals with colon cancer cell strain SW480. The settings on record: 72 hours.
Description: as §1, §2, §3

Assay [6] has as its system breast carcinoma cell strain MDA-MB-468. The settings on record: 72 hours.
Description: as §1, §2, §3

Assay [7] relates to liver cancer cell strain Hep G2. The settings on record: 72 hours, read-out: HEPG2 (IC50).
Description: as §1, §2, §3

Assay [8] deals with chronic granulocytic leukemia cell strain K562. The conditions noted are these: 72 hours.
Description: as §1, §2, §3

For assay [9], the system named is colon cancer cell strain HCT116. The conditions noted are these: 72 hours.
Description: as §1, §2, §3

Assay [10] concerns breast carcinoma cell strain BT474. The settings on record: 72 hours.
Description: as §1, §2, §3

In assay [11] the test system is squamous cell carcinoma cell strain A431. The settings on record: 72 hours.
Description: as §1, §2, §3

The test system of assay [12] is non-small cell lung carcinoma cell strain H292 (EGFR WT). The settings on record: 72 hours. The procedure:
as §1
(§4) All of the above-mentioned non-small cell lung carcinoma cell strains and the breast carcinoma cell strain BT 474 were cultured with a RPMI-1640 complete culture medium containing 10% fetal bovine serum, 100 U/ml penicillin and 100 μg/ml streptomycin under 5% CO2 and at 37° C. The other cell strains were cultured with a DMEM complete culture medium containing 10% fetal bovine serum (having a MV4-11 cell content of 20%), 100 U/ml penicillin and 100 μg/ml streptomycin under 5% CO2 and 37° C.
as §3

Assay [13] concerns non-small cell lung carcinoma cell strain PC-9 (EGFR delE746-A750 deletion mutation). The settings on record: 72 hours. The procedure: as §1, §4, §3
For assay [14], the system named is non-small cell lung carcinoma cell strain H1975 (EGFR L858R/T790M mutation). The settings on record: 72 hours. The procedure:
as §1, §4, §3

The subject of assay [15] is non-small cell lung carcinoma cell strain HCC827. The conditions noted are these: 72 hours. The procedure: as §1, §4, §3

Turning to `c1ccc(Nc2nc3cnc(Nc4ccc(CN5CCOCC5)cc4)nc3n2C2CCCC2)cc1` [Compounds 8-48], the IC50 in [1] was determined as 2940 nM; in assay [2], 2080 nM; in [3] it was 297 nM; in [4] it was 583 nM; in [5] it was 9890 nM; in [6] it was 2130 nM. Also, the IC50 in assay [7] is over 10000 nM; in [8] it was 230 nM; in assay [9], over 10000 nM; in assay [10], 525 nM; in assay [11], 788 nM; in assay [12], 18.5 nM. In addition, the IC50 worked out at 26.2 nM in assay [13], 4580 nM in assay [14] and 0.2 nM in [15].

As for `CN1CCN(c2ccc(Nc3ncc4nc(Nc5cccc(F)c5)n(C5CCCC5)c4n3)cc2)CC1` [Compounds 8-49], the IC50 in assay [1] amounted to 1440 nM; in assay [2] it was 1980 nM; in [3], 543 nM; in [4] it was 193 nM; in [5], 5040 nM; in assay [6] it was 987 nM. The IC50 in assay [7] is 9240 nM; in assay [8], 121 nM; in assay [9] it was 1440 nM; in assay [10], 2670 nM; in assay [11], 586 nM; in assay [12], 4.5 nM. Further, the values for the IC50 in [13], in assay [14] and in [15] were 0.2 nM, 310 nM and 0.3 nM, respectively.

Consider `CN1CCN(c2ccc(Nc3ncc4nc(Nc5ccccc5)n(C5CCCCC5)c4n3)cc2)CC1` [Compounds 8-50], for which the IC50 turned out to be 964 nM in assay [1]; 1560 nM in [2]; 218 nM in assay [3]; 64.4 nM in assay [4]; 2720 nM in assay [5]; 207 nM in assay [6]. Also, the IC50 is 8250 nM in assay [7]; 30.5 nM in [8]; 2470 nM in assay [9]; 2160 nM in [10]; 82.9 nM in assay [11]; over 10000 nM in assay [12]. For the same compound, the IC50 in assay [13] stood at 3.5 nM; in [14] it was 182 nM; in assay [15], 0.3 nM.

Consider `CN1CCN(c2ccc(Nc3ncc4nc(Nc5cccc(O)c5)n(C5CCCC5)c4n3)cc2)CC1` [Compounds 8-51], for which the IC50 in assay [1] worked out at 733 nM; in assay [2], 539 nM; in assay [3], 248 nM; in assay [4] it was 3.6 nM; in assay [5], 6720 nM; in assay [6] it was 351 nM. Further, the IC50 stood at 8220 nM in assay [7]; 11.3 nM in [8]; 4140 nM in assay [9]; 764 nM in assay [10]; 248 nM in [11]; 22.3 nM in assay [12]. Further, the IC50 in assay [13] was determined as 9.5 nM; in assay [14] it was 630 nM; in [15], 0.2 nM.

Take `CN1CCN(c2ccc(Nc3ncc4nc(Nc5cccc(Cl)c5)n(C5CCCC5)c4n3)cc2)CC1` [Compounds 8-52]: the IC50 came to 1570 nM in [1]; 974 nM in assay [2]; 457 nM in assay [3]; 642 nM in assay [4]; 4620 nM in [5]; 737 nM in [6]. The IC50 in [7] stood at 7230 nM; in assay [8], 148 nM; in assay [9], 5930 nM; in assay [10], 165 nM; in assay [11] it was 79.6 nM; in assay [12] it was 4 nM. In addition, the IC50 in [13] is 0.6 nM; in assay [14], 271 nM; in assay [15] it was 0.3 nM.

In the case of `Cc1cccc(Nc2nc3cnc(Nc4ccc(N5CCN(C)CC5)cc4)nc3n2C2CCCC2)c1` [Compounds 8-53], the IC50 amounted to 2110 nM in assay [1]; 8070 nM in assay [2]; 559 nM in assay [3]; 899 nM in [4]; 4210 nM in assay [5]; 622 nM in [6]. The IC50 in assay [7] was over 10000 nM; in assay [8] it was 95.3 nM; in assay [9], over 10000 nM; in assay [10], 1510 nM; in assay [11], 249 nM; in assay [12], 4.1 nM. For the same compound, the IC50 in assay [13] amounted to 0.2 nM; in [14] it was 552 nM; in assay [15] it was 0.2 nM.

For `CN1CCN(c2ccc(Nc3ncc4nc(Nc5cc(Cl)cc(Cl)c5)n(C5CCCC5)c4n3)cc2)CC1` [Compounds 8-54], the IC50 was 6640 nM in assay [1]; 5580 nM in assay [2]; 688 nM in [3]; 1070 nM in [4]; 6730 nM in [5]; 3350 nM in assay [6]. Moreover, the IC50 was determined as 5980 nM in assay [7]; 863 nM in assay [8]; 6960 nM in [9]; 3960 nM in [10]; 2060 nM in assay [11]; 279 nM in assay [12]. Further, the 50% inhibitory concentration (IC50) in assay [13] was 204 nM; in assay [14], 1700 nM; in [15], 6.3 nM.

Turning to `CN1CCN(c2ccc(Nc3ncc4nc(Nc5cc(F)ccc5F)n(C5CCCC5)c4n3)cc2)CC1` [Compounds 8-55], the IC50 in [1] turned out to be 2970 nM; in [2], 2770 nM; in assay [3], 1720 nM; in assay [4], 682 nM; in assay [5] it was 5320 nM; in assay [6] it was 2180 nM. In addition, the IC50 was 4680 nM in assay [7]; 88 nM in [8]; 6550 nM in [9]; 456 nM in [10]; 198 nM in assay [11]; over 10000 nM in [12]. The values for the IC50 in [13], in assay [14] and in assay [15] were 1 nM, 323 nM and 0.2 nM, respectively.

`COCCOc1ccc(Nc2ncc3nc(Nc4ccccc4)n(C4CCCC4)c3n2)cc1` [Compounds 8-56]: the IC50 is over 10000 nM in assay [1]; over 10000 nM in [2]; over 10000 nM in [3]; 4430 nM in assay [4]; over 10000 nM in assay [5]; over 10000 nM in [6]. The IC50 in assay [7] is over 10000 nM; in assay [8], over 10000 nM; in [9] it was over 10000 nM; in [10] it was over 10000 nM; in assay [11] it was over 10000 nM; in assay [12], 81 nM. In addition, the results for the IC50 in [13], in [14] and in assay [15] were 7 nM, over 10000 nM and 0.6 nM, respectively.

Take `CN1CCN(c2ccc(Nc3ncc4nc(Nc5cc(Cl)c(Cl)cc5Cl)n(C5CCCC5)c4n3)cc2)CC1` [Compounds 8-57]: the IC50 in assay [1] is 8370 nM; in assay [2], over 10000 nM; in [3], 4590 nM; in assay [4] it was 6160 nM; in assay [5], 9760 nM; in assay [6], over 10000 nM. Moreover, the IC50 in assay [7] is over 10000 nM; in assay [8], 352 nM; in assay [9], 7860 nM; in [10], over 10000 nM; in [11], 5770 nM; in [12] it was 752 nM. The results for the IC50 in assay [13], in assay [14] and in [15] were 177 nM, over 10000 nM and 28 nM, respectively.

What is called IC50 is the midpoint of a concentration-inhibition curve.
